Laboratory results as given in patent publication US7547676B2, “Antagonist peptides to the C5A chemotactic function of vitamin D binding protein” (The Research Foundation of State University of New York, priority 2004, dated 2009).

Columns and labels:
U937-C5aR cells [1] = assay: Chemotaxis assay, U937-C5aR cells; assay type: cell-based, human; settings: Example 6
Method: Neutrophils (4×10^6/ml) or U937-C5aR cells (6×10^6/ml) in chemotaxis buffer were treated for 15 min at 22° C. with 20 μg/ml of anti-CD36, anti-CD47 or anti-gC1qR. Cells were then allowed to respond to either 2.5% complement-activated serum (ZAS) or 1 nM purified C5a for 120 min (FIG. 14A. U937-C5aR cells) or 25 min (Panel B. neutrophils) at 37° C. Numbers represent mean±SEM, n=4.
U937 cells were originally obtained from the American Type Culture Collection and transfected with either the human C5a receptor or the empty plasmid vector as detailed previously (16). U937 cells were cultured at 37° C., 5% CO2 in RPMI 1640 containing 10% FBS (HyClone) and […] active G418 (Invitrogen Life Technologies) and maintained at a density between 2×10^5 and 1.5×10^6/ml.
Serum and citrated plasma (1 ml each) were incubated for 1 h at 37° C. with 10 mg of zymosan. Particulate matter was removed by centrifugation (15,000× g) for 5 min at 4° C. using a microfuge. Samples were then aliquoted and frozen at −20° C.
Cell movement was quantitated using a 48-well microchemotaxis chamber (NeuroProbe) and 5.0-μm pore size cellulose nitrate filters (purchased from NeuroProbe) as previously described (13). Cell movement was quantitated microscopically by measuring the distance in micrometers that the leading front of cells had migrated into the filter according to the method described by Zigmond and Hirsch (17). In each experiment, five fields per duplicate filter were measured at ×400 magnification. The value of the background controls for random cell movement (cells responding to buffer) has been subtracted in all cases so that the data are presented as net movement in micrometers.

[2] = tested on: differentiated HL-60 cells; assay: Chemotaxis assay, differentiated HL-60 cells responding to C5a, C5a plus DBP or ZAS; assay type: cell-based, Human; settings: differentiated HL-60 cells; 100 pM C5a (FIG. 1: 25-200 pM) plus 50 nM of indicated DBP, 60 min at 37° C
Method: Cells (6×10^6/ml) were resuspended in chemotaxis buffer and treated either with chemotaxis buffer (control), 1 μM of peptide 1 (130-152), or 1 μM of peptide 2 (150-172) for 30 min at room temperature. The chemotactic response of differentiated HL-60 cells to 100 pM C5a alone, C5a plus 50 nM full-length natural DBP or 1% zymosan-activated serum (ZAS) was measured for 60 minutes at 37° C. Numbers represent net cell movement in 60 min, mean±SEM of 3 experiments.
(§1) Cells and cell culture: Human promyelocytic cell line HL-60 was obtained from ATCC (Rockville, Md.) and cultured in RPMI 1640 medium supplemented with 10% FBS. Differentiation of HL-60 cells was initiated with 250 μM Bt2cAMP for 48 hours.
Chemotaxis assay. Chemotaxis was performed as described previously (see Kew, R. R. et al., J. Leukoc. Biol. 58, 55-58 (1995)). In brief, 35 μl of C5a (0.01 to 1 nM) in the chemotaxis buffer (HBSS with 1% BSA, 10 mM HEPES) were placed in duplicate in the lower chamber of a 48-well chamber (Neuroprobe, Md.). The lower compartments were covered with a 5 μm pore cellulose nitrate filter and then 50 μl of the cell suspension (2.5×10^5/well) was pipetted into the upper compartments. The chemotactic chamber was incubated for 1 hour at 37° C. in a humidified incubator with 5% CO2. Following incubation, the filter was fixed, stained and mounted on a microscope slide. Cell movement was measured as the distance in microns that the leading front of the cells had migrated into the filter (see Zigmond, S. et al., J. Exp. Med. 137, 387 (1973)).

[3] = tested on: differentiated HL-60 cells; assay: Ligand-induced calcium mobilization (Fluo-3 AM) in differentiated HL-60 cells; assay type: cell-based, Human; settings: differentiated HL-60 cells incubated 30 min with 50 nM of indicated DBP, then C5a
Method: as §1
Ligand-induced calcium mobilization. Calcium mobilization studies were performed using the Fluo-3 AM probe as described previously (see Merritt, J. E. et al., Biochem. J. 269, 513-519 (1990)). Differentiated HL-60 cells (1×10^7 cells/ml) were resuspended in HBSS-1% BSA containing 2 μM Fluo-3 AM (Molecular Probes, Eugene, Oreg.) and incubated at 37° C. for 40 minutes. Cells incubated without the dye were used as a control to measure autofluorescence (Fmin). Following the dye uptake, cells were washed twice then suspended at 5×10^6 cells/ml in HBSS containing 1% BSA. Half of the cell suspension was treated with 50 nM DBP for 30 min at room temperature, the other half served as the untreated control. For each measurement, 400 μl of cell suspension (with or without DBP) was added to a cuvette and stimulated with various concentrations of purified C5a at room temperature (22-24° C.). Fluorescence was then measured immediately using a Perkin-Elmer LS-5 fluorometer at 505 nm excitation, 526 nm emission for Fluo-3 AM. Fmax was measured by treating labeled cells with 60 μM digitonin. Intracellular free calcium concentrations were calculated using the following formula: (Ca^2+)=Kd (F−Fmin)/(Fmax−F), where Kd=325 nM for Fluo-3 according to manufacturer (Molecular Probes).

U937-C5aR cells [4] = assay: C5a-induced intracellular calcium mobilization in U937-C5aR cells; assay type: cell-based, human; settings: FIG. 11B, 12; 0.5 μM DBP peptide, 50 nM DBP, 0.1 nM C5a
Method: FIG. 11A and FIG. 11B show the effect of DBP on C5a-induced intracellular calcium mobilization in U937-C5aR cells. U937-C5aR cells (10^7 cells/ml) were resuspended in HBSS-1% BSA containing 2 μM Fluo-3 AM and incubated at 37° C. for 40 minutes. Cells incubated without the dye were used as a control to measure autofluorescence (Fmin). Following the dye uptake, cells were washed twice then suspended at 5×10^6 cells/ml in HBSS containing 1% BSA. For the pretreatment experiments, cells were incubated for 30 min at 22° C. with 50 nM DBP or 0.5 μM DBP peptide 1 (p1). For each measurement, 400 μl of cell suspension was added to a cuvette and stimulated with the indicated concentration of C5a (FIG. 11A) or 0.1 nM C5a (FIG. 11B). Fluorescence was then measured immediately using a Perkin-Elmer LS-5 fluorometer at 505 nm excitation, 526 nm emission for Fluo-3 AM. Fmax was measured by treating labeled cells with 60 μM digitonin. Intracellular free calcium concentrations were calculated using the following formula: (Ca^2+)=Kd (F−Fmin)/(Fmax−F), where Kd=325 nM for Fluo-3 according to manufacturer (Molecular Probes). Data are presented as mean±SEM (n=4-6) of the increase in intracellular calcium concentration.
U937-C5aR cells (10^7 cells/ml) were resuspended in HBSS-1% BSA containing 2 μM Fluo-3 AM and incubated at 37° C. for 40 minutes. Cells incubated without the dye were used as a control to measure autofluorescence (Fmin). Following the dye uptake, cells were washed twice then suspended at 5×10^6 cells/ml in HBSS containing 1% BSA. Cells were incubated for 30 min at 22° C. with either 50 nM DBP or 0.5 μM DBP peptide. For each measurement, 400 μl of cell suspension was added to a cuvette and stimulated with 0.1 nM purified C5a. Fluorescence was then measured immediately using a Perkin-Elmer LS-5 fluorometer at 505 nm excitation, 526 nm emission for Fluo-3 AM. Fmax was measured by treating labeled cells with 60 μM digitonin. Intracellular free calcium concentrations were calculated using the following formula: (Ca2+)=Kd (F−Fmin)/(Fmax−F), where Kd=325 nM for Fluo-3 according to manufacturer (Molecular Probes)

neutrophils = assay: Quantitative binding of radioiodinated DBP to neutrophils; design: species or system human; settings: DBP saturated with the ligand; 100 nM 125I-DBP, 37° C. 60 min
Method: Quantitative binding of radioiodinated DBP to neutrophils Purified DBP (200-400 μg) was iodinated using Na-^125I (Dupont-NEN, Wilmington, Del.) as previously described (DiMartino and Kew, 1999). Neutrophils (10^7 cells/sample) were incubated with 100 nM ^125I-DBP in Hank's balanced salt solution (HBSS) containing 0.1% bovine serum albumin (BSA) (assay buffer) in a total volume of 100 μl. Samples were incubated at 37° C. for 60 min after which cells were placed on ice and then washed twice with ice-cold assay buffer (1.0 ml each) and centrifuged for 7 min at 200× g at 2° C. The cell pellets were then counted for total radioactivity in a gamma counter. All samples were assayed in triplicate or quadruplicate.

Row | Compound | enhancement of C5a-mediated chemotaxis (net cell movement) [2] | enhancement of intracellular Ca2+ flux in response to C5a [3] | other results
1 | [O-][Cl+2]([O-])O [chlorate, sodium chlorate] |  |  | U937-C5aR chemotaxis to C-activated plasma (U937-C5aR cells [1]; 2.5% C-activated plasma): not; U937-C5aR chemotaxis to C-activated serum (U937-C5aR cells [1]; 2.5% C-activated serum): significantly reduces; U937-C5aR chemotaxis to 1 nM purified C5a (net movement) (U937-C5aR cells [1]; treated cells, DBP-independent): 56+/−4.8 μm/120 min
2 | (1-112): truncated version of DBP domain I expressed in E. coli (LERGRDYEKNKVCKEFSHLGKEDFTSLSLVLYSRKFPSGT) | lack enhancing activity | lack enhancing activity | 
3 | (1-125): truncated version of DBP domain I expressed in E. coli (LERGRDYEKNKVCKEFSHLGKEDFTSLSLVLYSRKFPSGT) | lack enhancing activity | lack enhancing activity | 
4 | (1-150): truncated version of DBP domain I expressed in E. coli (LERGRDYEKNKVCKEFSHLGKEDFTSLSLVLYSRKFPSGT) | almost the same level of activity as full-length natural DBP | almost the same level of activity as full-length natural DBP | 
5 | (1-175): truncated version of DBP domain I expressed in E. coli (LERGRDYEKNKVCKEFSHLGKEDFTSLSLVLYSRKFPSGT) | almost the same level of activity as full-length natural DBP | almost the same level of activity as full-length natural DBP | 
6 | EAFRKDPKEYAN [peptide 3, DBP residues 130-141] |  |  | block of the DBP-enhanced C5a calcium signal (U937-C5aR cells [4]): partially block
7 | Vitamin D |  |  | effect on binding of 125I-DBP to neutrophils (neutrophils): does not alter its ability to bind to neutrophils
8 | domain I & II: truncated reDBP, residues 1-378 (LERGRDYEKNKVCKEFSHLGKEDFTSLSLVLYSRKFPSGT) | significantly enhanced | significantly enhanced | 
9 | domain I: truncated reDBP, residues 1-191 (EAFRKDPKEYANQFMWEYST) | significantly enhanced | significantly enhanced | 
10 | peptide 5: DBP residues #135-146, printed as SEQ ID NO: 10; residues match the sequence of SEQ ID NO: 9 (NQFMWEYSTNYG) |  |  | block of the DBP-enhanced C5a calcium signal (U937-C5aR cells [4]): partially block
